One data set relates to Paramyxo. The experiment in a line: Potency by virus family (Fig. 2), Paramyxo. The data set is classed as cell-based. Particulars: read-out: potency class (EC50).
Data set [1] has as its system Ebola virus. As to conditions: in vivo; cited from earlier work.
Data set [2] deals with Ebola virus. As to conditions: human, in vivo; cited from earlier work.
In data set [3] the test system is MARV Rec. Bat371-Gluc (Marburg virus). Nature of the data set: in vitro. As to conditions: human.
The next data set concerns ANDV Chile 9717869. The experiment in a line: microbe, parasite or virus in culture. As to conditions: Orthohantavirus andesense, Huh-7.
Another data set relates to MV, hPIV3, hMPV, and RSV. The experiment in a line: organism not typed. The data set is classed as cell-based. Particulars: read-out: EC50 values (range over viruses).
For the next data set, the system named is WNV. Particulars: cited from earlier work.
The next data set relates to SARS-CoV. As to conditions: cited from earlier work.
The next data set concerns hPIV3. Particulars: cited from earlier work.
Another data set concerns NiV B-2004. The experiment in a line: microbe, parasite or virus in culture. As to conditions: Henipavirus nipahense, HeLa.

Here are results for 2 compounds from publication PMC5338263, “GS-5734 and its parent nucleoside analog inhibit Filo-, Pneumo-, and Paramyxoviruses” (Scientific Reports, 2017).

What is called EC50 is the concentration that produces a half-maximal response. One may read the EC90 as the concentration needed for an effect of 90%. A low value points to an effect from little substance. As for `CCC(CC)COC(=O)[C@H](C)N[P@](=O)(OC[C@H]1O[C@@](C#N)(c2ccc3c(N)ncnn23)[C@H](O)[C@@H]1O)Oc1ccccc1` [GS-5734], the concentration for a half-maximal effect (EC50) in the data set with Paramyxo was < 100 nM; in the data set on RSV Rec. rgRSV224 (A2), 21 nM; in the data set with ANDV Chile 9717869 it was 6950 ± 3100 nM. The “protection from lethal Ebola virus infection” value in the data set with Ebola virus [1] was “protected”. In addition, the survival of patients entry in the data set on Ebola virus [2] is “both of whom survived”. Besides, in [3], the selectivity ratio stood at 526. Further, in the data set on ANDV Chile 9717869, it took 10100 nM to reach the 90% level (EC90).
For `N#C[C@@]1(c2ccc3c(N)ncnn23)O[C@H](CO)[C@@H](O)[C@H]1O` [Nuc], the EC50 in the data set with MV, hPIV3, hMPV, and RSV is 500 to 2000 nM; with MuV IA 2006 it was 9700 nM. The “antiviral activity (active or not)” value in the data set with WNV is reported as “not”; in the data set with SARS-CoV, “shown to have activity”; in the data set on hPIV3, “shown to have activity”. The same compound displayed an EC90 with NiV B-2004 of 2200 nM.
